Activity data for 15 compounds are collected here from ChEMBL document CHEMBL1150902, “Certain norditerpenoid alkaloids and their cardiovascular action” (1998).

Calls of active or inactive are those of the source. No cut-off for these calls is given here.

Test [1] has as its system Rattus norvegicus. Kind of test: Cardiovascular activity in anesthetized Sprague-Dawley rat assessed as induction of cardiac arrhythmia at 400 ug/kg, iv. It counts as functional, organism-based. Conditions: Heart.
For test [2], the system named is Rattus norvegicus. The experiment in a line: Cardiovascular activity in anesthetized Sprague-Dawley rat assessed as induction of cardiac arrhythmia at 200 ug/kg, iv. It counts as functional, organism-based. Conditions: Heart.
The test system of test [3] is Rattus norvegicus. Kind of test: Cardiovascular activity in anesthetized Sprague-Dawley rat assessed as reduction in blood pressure at 200 ug/kg, iv. It counts as functional. Also noted: scale not given: the % may be the effect or the level left.
Test [4] relates to Rattus norvegicus. Kind of test: Cardiovascular activity in anesthetized Sprague-Dawley rat assessed as reduction in heart rate at 200 ug/kg, iv. It counts as functional. On the set-up: scale not given: the % may be the effect or the level left.
Test [5] relates to Rattus norvegicus. The experiment in a line: Cardiovascular activity in anesthetized Sprague-Dawley rat assessed as reduction in heart rat at 400 ug/kg, iv. It counts as functional. Also noted: scale not given: the % may be the effect or the level left.
Test [6] has as its system Rattus norvegicus. The experiment in a line: Cardiovascular activity in anesthetized Sprague-Dawley rat assessed as reduction in blood pressure at 400 ug/kg, iv. Also noted: scale not given: the % may be the effect or the level left. It counts as functional.
Test [7] concerns Canis familiaris. The experiment in a line: Cardiovascular activity in dog assessed as increase in cardial vagal afferent nerve activity at 150 ug/kg, iv. It counts as functional, Canis lupus familiaris.
Test [8] deals with Canis familiaris. Kind of test: Cardiovascular activity in dog assessed as decrease in cardial vagal efferent nerve activity at 150 ug/kg, iv. It counts as functional, Canis lupus familiaris. Also noted: scale not given: the % may be the effect or the level left.

Consider `CCN1C[C@@]2(COC)[C@H]3[C@@H](OC)[C@H]4C1[C@]3([C@@H](OC)C[C@H]2OC(C)=O)[C@@H]1C[C@H]2[C@H](OC(=O)c3ccc(OC)c(OC)c3)[C@@H]1[C@]4(OC(C)=O)C[C@@H]2OC`, for which the result in test [1] and in test [2] was Active.

As to `CC/C=C\C/C=C\C/C=C\CCCCCCCCC(=O)O[C@]12C[C@H](OC)[C@H]3C[C@H]([C@@H]1[C@H]3OC(=O)c1ccc(OC)c(OC)c1)[C@@]13C4[C@@H]2[C@H](OC)[C@@H]1[C@](COC)(CN4CC)[C@H](O)C[C@@H]3OC`, the Activity in test [3] is 30.3%; in test [4], 8.5%; in test [5], 24.5%; in test [6], 53.4%.

Consider `CCN1C[C@]2(OC(=O)c3ccccc3N)CC[C@H](OC)[C@]34C1[C@H](C[C@H]23)[C@@]1(OC(C)=O)C[C@H](OC)[C@H]2C[C@@H]4[C@]1(OC(C)=O)[C@H]2OC`, for which the Activity in test [3], in test [4], in test [5] and in test [6] was 0% each time.

Take `CCN1C[C@]2(COC)CC[C@H](OC)[C@]34C1[C@H](C[C@H]23)[C@H]1C[C@@H](OC)[C@@]2(O)C[C@@H]4[C@@H]1[C@H]2OC(=O)c1ccccc1`: the Activity in test [3] is given as 22.6%; in test [4], 0%; in test [5], 3%; in test [6], 27.6%.

`CCN1C[C@]2(OC(=O)c3ccccc3N)CC[C@H](OC)[C@]34C1[C@H](C[C@H]23)[C@@]1(O)C[C@H](OC)[C@H]2C[C@@H]4[C@]1(O)[C@H]2OC`: the Activity in test [7] is listed as 40%; in test [8] it was 23.5%; in test [3] it was 27.2%; in test [4], 12.7%; in test [5], 14.8%; in test [6], 57.6%.

As for `CCN1C[C@]2(COC)CC[C@H](OC)[C@]34C1[C@H]([C@H](OC)[C@H]23)[C@@]1(OC(=O)/C=C/c2ccc(O)c(OC)c2)C[C@H](OC)[C@@]2(O)C[C@@H]4[C@@H]1[C@H]2OC(=O)c1ccccc1`, the Activity turned out to be 8.8% in test [3], 8.3% in test [4], 8.3% in test [5] and 10.6% in test [6].

`CCN1C[C@]2(COC)CC[C@H](OC)[C@]34C1[C@H]([C@H](OC)[C@H]23)[C@@]1(OC(=O)c2cccc3cc5ccccc5cc23)C[C@H](OC)[C@@]2(O)C[C@@H]4[C@@H]1[C@H]2OC(=O)c1ccccc1`: the Activity was 20.8% in test [3], 4.2% in test [4], 2% in test [5] and 0% in test [6].

For `CCN1C[C@]2(COC)CC[C@H](OC)[C@]34C1[C@H]([C@H](OC)[C@H]23)[C@@]1(OC(=O)c2cccc3cc5ccccc5cc23)C=C[C@@]2(O)C[C@@H]4[C@@H]1[C@H]2OC(=O)c1ccccc1`, the Activity in test [3] is 0%; in test [4] it was 3.7%; in test [5], 3.8%; in test [6] it was 9.2%.

For the compound `CCN1C[C@]2(COC)CC[C@H](OC)[C@@]34C1[C@@H](C1=C[C@H](OC)[C@@]5(O)C[C@@H]3[C@@H]1[C@H]5OC(=O)c1ccccc1)[C@H](OC)[C@H]24` [PYRODELPHININE], the Activity was determined as 23.1% in test [3], 7.7% in test [4], 8.1% in test [5] and 14.3% in test [6].

Consider `CC[N+]1([O-])C[C@]2(COC)CC[C@H](OC)[C@]34C1[C@H]([C@H](OC)[C@H]23)[C@@]1(OC(C)=O)C[C@H](OC)[C@@]2(OC(C)=O)C[C@@H]4[C@@H]1[C@H]2OC(=O)c1ccccc1` (stereo not given in full), for which the Activity in test [3] was determined as 0%; in test [4], 3.8%; in test [5] it was 8.7%; in test [6], 13.4%.

On to `CCN1C[C@]2(OC(=O)c3ccccc3NC(C)=O)CC[C@H](OC)[C@]34C1[C@H](C[C@H]23)[C@@]12C[C@H](OC)[C@H]3C[C@@H]4[C@]1(OCO2)[C@H]3OC`, for which the Activity is recorded as 26% in test [3], 5.7% in test [4], 5.6% in test [5] and 16.4% in test [6].

With `CCN1C[C@]2(COC)CC[C@H](OC)[C@]34C1[C@H]([C@H](OC)[C@H]23)[C@@]1(OC(=O)c2ccc(N)cc2)C[C@H](OC)[C@@]2(O)C[C@@H]4[C@@H]1[C@H]2OC(=O)c1ccccc1`, the Activity in test [3] was 42.4%; in test [4], 8.4%; in test [5], 14.8%; in test [6] it was 38%.

On to `CC[N+]1([O-])C[C@]2(C)CC[C@H](OC)[C@]34C1[C@H]([C@@H](O)[C@H]23)[C@@]1(O)CC[C@H]2C[C@@H]4[C@@H]1C(=O)O2` (stereo not given in full), for which the Activity in test [3] is listed as 28.1%; in test [4], 18.8%; in test [5], 8.9%; in test [6], 7.6%.

On to `CCN1C[C@@]2(COC)[C@H]3[C@@H](OC)[C@H]4C1[C@]3([C@@H](OC)C[C@H]2OC(C)=O)[C@@H]1C[C@]2(OC(C)=O)[C@@H](OC)C[C@@]4(OC(C)=O)[C@H]1[C@H]2OC(=O)c1ccc(OC)c(OC)c1`, for which the Activity in test [3] came to 13.2%; in test [4], 5.4%; in test [5], 0%; in test [6], 0%.

Take `CCCCCCCCCCCCCCCCCC(=O)O[C@]12C[C@H](OC)[C@H]3C[C@H]([C@@H]1[C@H]3OC(=O)c1ccc(OC)c(OC)c1)[C@@]13C4[C@@H]2[C@H](OC)[C@@H]1[C@](COC)(CN4CC)[C@H](O)C[C@@H]3OC`: the Activity is on record as 15.3% in test [3], 0% in test [4], 24.5% in test [5] and 53.4% in test [6].
